This note sets out measurements from patent US20110166118A1, “NEW TRINEM ANTIBIOTICS AND INHIBITORS OF BETA-LACTAMASES” (LEK PHARMACEUTICALS D.D., priority 2008, published 2011).

The target of data set [1] is class A beta-lactamase TEM-1 (Escherichia coli, UniProt P62593). The data set can be described thus: IC50 determination with nitrocefin, TEM-1. Type of data set: biochemical, E. coli. To be noted: pre-incubated 30 min at 37° C., phosphate buffer pH 7.0, nitrocefin. As for the experimental part: (§1) The IC50 value represents the concentration of inhibitor required to effect a 50% loss of activity of free enzyme. A standard test for the production of beta-lactamase involves use of the chromogenic cephalosporin, nitrocefin.
(§2) Homogeneously purified class A beta-lactamases TEM-1 and SHV-1 from E. coli and class C enzyme P99 from Enterobacter cloaca were employed in the assay.
(§3) All the enzymes and compounds were dissolved in 50 mM phosphate buffer pH 7.0 and all further dilutions were done with the same buffer solution. Enzyme and compound dilutions were pre-incubated for 30 min at 37° C. and in a final volume of 500 μl. Than 10 μl of 5 mM nitrocefin (reporter substrate) was added to the solution and the absorbance at 482 nm was measured during 2 to 5 minutes. The initial rate was calculated for all the different solutions.

For data set [2], the target named is class C beta-lactamase P99 (AmpC) (Enterobacter cloacae, UniProt P05364). The experiment in a line: biochemical. Type of data set: biochemical. The procedure:
as §1, §2, §3

Data set [3] has as its target class A beta-lactamase SHV-1 (Escherichia coli, UniProt P0AD63). The experiment in a line: IC50 determination with nitrocefin, SHV-1. Type of data set: biochemical, E. coli. As for the experimental part: as §1, §2, §3
The next data set relates to E. faecalis Lek 112. The experiment in a line: Broth microdilution MIC, S14. Type of data set: cell-based. To be noted: Enterococcus faecalis, LEK112, CAMHB, 35° C., 24 h, duplicate. As for the experimental part: (§4) Stock solutions of the test compounds and Tazocin® were prepared in distilled water according to the CLSI guidelines [Methods for dilution antimicrobial tests for bacteria that grow aerobically. NCCLS document M7-A5; 2000; vol. 19. Clinical and Laboratory Standards Institute, Villanova, Pa.].
(§5) All tested strains and clinical isolates were either purchased from the American Type Culture Collection (ATCC), or from the in-house company culture collection. The tested strains were purely used for the purposes of illustrative example, and are by no means essential for performing the invention.
(§6) The strains were processed according to procedures recommended by ATCC, or procedures that are routinely used. Frozen bacterial stocks were thawed to room temperature, and a few drops were placed on an appropriate blood agar plate. The cultures were subcultured on a fresh Mueller-Hinton agar plate (MHA) the following day, and the subcultures were again incubated overnight.
(§7) Bacterial suspensions with a turbidity equivalent to that of a 0.5 McFarland standard were prepared by suspending a tiny portion of one colony from blood agar plates in 2 mL of sterile saline. […]
(§8) The in vitro activities of the antibiotics were determined by the broth microdilution method as recommended by CLSI guidelines. […]

In the next data set the test system is C. freundii B271 (SHV-5). The data set can be described thus: Broth microdilution MIC, S9. To be noted: CAMHB, 35° C., 24 h, duplicate. Type of data set: cell-based. As for the experimental part: as §4, §5, §6, §7, §8
The test system of data set [4] is K. pneumoniae B401 (TEM-10, TEM-12). The experiment in a line: Broth microdilution MIC, S17. To be noted: Klebsiella pneumoniae, CAMHB, 35° C., 24 h, duplicate. Type of data set: cell-based. As for the experimental part: as §4, §5, §6, §7, §8
Data set [5] deals with K. pneumoniae ATCC 700603 (SHV-18). The experiment in a line: Broth microdilution MIC, S8. Type of data set: cell-based. To be noted: Klebsiella pneumoniae, ATCC700603, CAMHB, 35° C., 24 h, duplicate. As for the experimental part: as §4, §5, §6, §7, §8
A further data set has as its system C. freundii B318 (CTX-M). The experiment in a line: Broth microdilution MIC, S10. To be noted: Citrobacter freundii, CAMHB, 35° C., 24 h, duplicate. Type of data set: cell-based. As for the experimental part:
as §4, §5, §6, §7, §8

In another data set the test system is K. pneumoniae Lek 22. The experiment in a line: Broth microdilution MIC, S18. To be noted: Klebsiella pneumoniae, LEK22, CAMHB, 35° C., 24 h, duplicate. Type of data set: cell-based. The procedure:
as §4, §5, §6, §7, §8

For data set [6], the system named is C. freundii Lek 17 (AmpC). The experiment in a line: Broth microdilution MIC, S19. Type of data set: cell-based. To be noted: Citrobacter freundii, CAMHB, 35° C., 24 h, duplicate. As for the experimental part:
as §4, §5, §6, §7, §8

The subject of the next data set is E. coli B308. The experiment in a line: Broth microdilution MIC, S12. Type of data set: cell-based. To be noted: Escherichia coli, CAMHB, 35° C., 24 h, duplicate. As for the experimental part:
as §4, §5, §6, §7, §8

For data set [7], the system named is ceftazidime-resistant strains. The experiment in a line: Broth microdilution susceptibility assay, overall comparison. Type of data set: cell-based. To be noted: in words, several ceftazidime-resistant strains tested. The procedure:
as §4, §5, §6, §7, §8

For data set [8], the system named is E. caerogenes ATCC 29751 (class II). The experiment in a line: Broth microdilution MIC, S4. Type of data set: cell-based. To be noted: CAMHB, 35° C., 24 h, duplicate. The procedure:
as §4, §5, §6, §7, §8

Another data set relates to E. cloacae Lek 24 (AmpC). The data set can be described thus: Broth microdilution MIC, S1. Type of data set: cell-based. To be noted: CAMHB, 35° C., 24 h, duplicate. The procedure:
as §4, §5, §6, §7, §8

The next data set deals with K. pneumoniae Lek 8. The data set can be described thus: Broth microdilution MIC, S16. Type of data set: cell-based. To be noted: Klebsiella pneumoniae, LEK8, CAMHB, 35° C., 24 h, duplicate. As for the experimental part:
as §4, §5, §6, §7, §8

For data set [9], the system named is E. cloacae Lek 14, derepressed (AmpC). The data set can be described thus: Broth microdilution MIC, S2. Type of data set: cell-based. To be noted: CAMHB, 35° C., 24 h, duplicate. The procedure: as §4, §5, §6, §7, §8
A further data set deals with E. coli B309. The data set can be described thus: Broth microdilution MIC, S13. To be noted: Escherichia coli, CAMHB, 35° C., 24 h, duplicate. Type of data set: cell-based. The procedure:
as §4, §5, §6, §7, §8

Another data set relates to E. faecium Lek 116. The data set can be described thus: Broth microdilution MIC, S15. Type of data set: cell-based. To be noted: Enterococcus faecium, LEK116, CAMHB, 35° C., 24 h, duplicate. The procedure: as §4, §5, §6, §7, §8
The test system of a further data set is E. cloacae 4013. The experiment in a line: Broth microdilution MIC, S3. Type of data set: cell-based. To be noted: Enterobacter cloacae, CAMHB, 35° C., 24 h, duplicate. As for the experimental part:
as §4, §5, §6, §7, §8

The next data set concerns K. pneumoniae DSA 1461. The data set can be described thus: Broth microdilution MIC, S7. Type of data set: cell-based. To be noted: Klebsiella pneumoniae, DSA1461, CAMHB, 35° C., 24 h, duplicate. The procedure:
as §4, §5, §6, §7, §8

A further data set deals with E. faecalis ATCC 29212. The data set can be described thus: Broth microdilution MIC, S5. Type of data set: cell-based. To be noted: Enterococcus faecalis, ATCC29212, CAMHB, 35° C., 24 h, duplicate. As for the experimental part: as §4, §5, §6, §7, §8
Data set [10] concerns K. pneumoniae B312 (SHV-18). The data set can be described thus: Broth microdilution MIC, S6. Type of data set: cell-based. To be noted: Klebsiella pneumoniae, CAMHB, 35° C., 24 h, duplicate. The procedure:
as §4, §5, §6, §7, §8

[11] abbreviates: in words, compared to tazobactam.

The structures appear in SMILES notation.

Chain of class C beta-lactamase P99 (AmpC) (P05364 21-381): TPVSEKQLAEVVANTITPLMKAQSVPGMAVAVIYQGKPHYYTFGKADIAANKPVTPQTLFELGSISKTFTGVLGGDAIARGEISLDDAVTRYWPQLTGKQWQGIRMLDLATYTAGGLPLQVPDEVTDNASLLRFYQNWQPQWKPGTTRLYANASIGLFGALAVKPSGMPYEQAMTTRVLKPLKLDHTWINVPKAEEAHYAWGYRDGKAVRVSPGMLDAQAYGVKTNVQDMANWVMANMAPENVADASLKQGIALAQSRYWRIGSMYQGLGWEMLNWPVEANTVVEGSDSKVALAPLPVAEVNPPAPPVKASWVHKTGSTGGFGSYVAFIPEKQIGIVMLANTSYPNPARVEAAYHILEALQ
Chain of class A beta-lactamase SHV-1 (P0AD63 22-286): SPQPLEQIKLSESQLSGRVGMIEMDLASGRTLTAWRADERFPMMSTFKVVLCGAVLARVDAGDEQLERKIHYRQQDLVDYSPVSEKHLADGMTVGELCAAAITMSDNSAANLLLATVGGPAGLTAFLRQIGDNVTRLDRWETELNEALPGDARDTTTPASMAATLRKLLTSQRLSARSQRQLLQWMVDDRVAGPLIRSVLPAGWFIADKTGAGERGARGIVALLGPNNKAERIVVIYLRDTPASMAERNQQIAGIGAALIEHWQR
Chain of class A beta-lactamase TEM-1 (P62593 24-286 limits assumed): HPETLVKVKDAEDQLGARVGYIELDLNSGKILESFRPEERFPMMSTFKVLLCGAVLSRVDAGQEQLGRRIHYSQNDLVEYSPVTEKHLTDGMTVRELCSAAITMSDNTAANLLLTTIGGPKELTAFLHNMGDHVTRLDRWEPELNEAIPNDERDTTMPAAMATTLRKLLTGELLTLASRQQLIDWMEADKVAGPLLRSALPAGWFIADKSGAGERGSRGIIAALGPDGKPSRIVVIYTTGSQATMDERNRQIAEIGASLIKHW

Regarding `CO[C@H]1CCC[C@H]2C1=C(C(=O)O)N1C(=O)[C@H]([C@H](O)C(F)(F)F)[C@@H]21` [LK-178, Sodium (4S,8S,9R,10S)-4-methoxy-10-[1-(S)-hydroxy-2,2,2-trifluoroethyl]-11-oxo-azatricyclo[7.2.0.0^3,8]undec-2-ene-2-carboxylate], the values for the IC50 in [1], in [2] and in data set [3] were 8400 nM, 419 nM and 1100 nM, respectively.
For `CO[C@H]1CCC[C@H]2C1=C(C(=O)[O-])N1C(=O)[C@H]([C@H](O)CF)[C@@H]21.[Na+]` [LK-180, Sodium salt of (4S,8S,9R)-4-methoxy-10-(1-(S)-hydroxy-fluoroethyl)-11-oxo-1-azatricyclo-[7.2.0.0 (3,8)]undec-2-ene-2-carboxylic acid], the figures for the IC50 in data set [1], in [2] and in data set [3] were 500 nM, 0.5 nM and 12 nM, respectively. The MIC is 4 µg/mL in the data set with E. faecalis Lek 112; 8 µg/mL in [4]; 2 µg/mL in [5]; 128 µg/mL with C. freundii B318 (CTX-M); 32 µg/mL against K. pneumoniae Lek 22; 8 µg/mL in [6]. Further, the MIC against E. coli B308 was determined as 4 µg/mL; in data set [8] it was 16 µg/mL; in the data set on E. cloacae Lek 24 (AmpC) (Enterobacter cloacae), 8 µg/mL; in the data set on K. pneumoniae Lek 8, 16 µg/mL; in the data set on E. coli B309 it was 4 µg/mL; against E. faecium Lek 116, 32 µg/mL. For the same molecule, the MIC was determined as 64 µg/mL against E. cloacae 4013, 4 µg/mL against K. pneumoniae DSA 1461, 4 µg/mL against E. faecalis ATCC 29212 and 8 µg/mL in [10]. For the same molecule, the “MIC S9” value in the data set on C. freundii B271 (SHV-5) is 16 µg/mL. Moreover, the “antibiotic activity compared to Tazocin®” value in [7] was “superior to Tazocin®”. Moreover, the “MIC S1” value in the data set on E. cloacae Lek 24 (AmpC) came to 4 µg/mL. For the same molecule, in data set [9], the “MIC S2” value was 4 µg/mL. For the same molecule, the “activity against AmpC enzyme as compared to tazobactam” value in [2] (setting [11]) is “highly potentiated activity”. In addition, the “activity against SHV-1 enzyme as compared to tazobactam” value in data set [3] (setting [11]) is “highly potentiated activity”.
